# Data: article PMC4823954, “From fighting depression to conquering tumors: a novel tricyclic thiazepine compound as a tubulin polymerization inhibitor” (Cell Death & Disease, 2016)
# Columns and labels:
# Test in all cases: KINOMEscan
# Assay type in all cases: binding
# Details in all cases: read-out: % Ctrl
# ZAP70 = molecular target: T1, ZAP70 (Homo sapiens, UniProt P43403)
# T1 construct: purchased DiscoveRx KINOMEscan
# Procedure, shortened: (§1)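 Competition binding panel of 442 non-mutant kinases: test compound at 5 and 10 μM competed with an active-site-directed ligand for 1 h with shaking. Bound kinase was eluted with 0.5 μM ligand and quantified by qPCR; %Ctrl = (compound − positive control)/(DMSO − positive control) × 100, lower meaning tighter binding.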
# DAPK2 = molecular target: T2, DAPK2 (Homo sapiens, UniProt Q9UIK4)
# T2 construct: purchased DiscoveRx KINOMEscan
# Procedure, shortened: as §1
# PCTK1 = molecular target: T3, PCTK1 (Homo sapiens, UniProt Q00536)
# T3 construct: purchased DiscoveRx KINOMEscan
# Procedure, shortened: as §1
# AKT1 = molecular target: T4, AKT1 (Homo sapiens, UniProt P31749)
# T4 construct: purchased DiscoveRx KINOMEscan
# Procedure, shortened: as §1
# MAP4K4 = molecular target: T5, MAP4K4 (Homo sapiens, UniProt O95819)
# T5 construct: purchased DiscoveRx KINOMEscan
# T5 sequence (O95819 whole entry): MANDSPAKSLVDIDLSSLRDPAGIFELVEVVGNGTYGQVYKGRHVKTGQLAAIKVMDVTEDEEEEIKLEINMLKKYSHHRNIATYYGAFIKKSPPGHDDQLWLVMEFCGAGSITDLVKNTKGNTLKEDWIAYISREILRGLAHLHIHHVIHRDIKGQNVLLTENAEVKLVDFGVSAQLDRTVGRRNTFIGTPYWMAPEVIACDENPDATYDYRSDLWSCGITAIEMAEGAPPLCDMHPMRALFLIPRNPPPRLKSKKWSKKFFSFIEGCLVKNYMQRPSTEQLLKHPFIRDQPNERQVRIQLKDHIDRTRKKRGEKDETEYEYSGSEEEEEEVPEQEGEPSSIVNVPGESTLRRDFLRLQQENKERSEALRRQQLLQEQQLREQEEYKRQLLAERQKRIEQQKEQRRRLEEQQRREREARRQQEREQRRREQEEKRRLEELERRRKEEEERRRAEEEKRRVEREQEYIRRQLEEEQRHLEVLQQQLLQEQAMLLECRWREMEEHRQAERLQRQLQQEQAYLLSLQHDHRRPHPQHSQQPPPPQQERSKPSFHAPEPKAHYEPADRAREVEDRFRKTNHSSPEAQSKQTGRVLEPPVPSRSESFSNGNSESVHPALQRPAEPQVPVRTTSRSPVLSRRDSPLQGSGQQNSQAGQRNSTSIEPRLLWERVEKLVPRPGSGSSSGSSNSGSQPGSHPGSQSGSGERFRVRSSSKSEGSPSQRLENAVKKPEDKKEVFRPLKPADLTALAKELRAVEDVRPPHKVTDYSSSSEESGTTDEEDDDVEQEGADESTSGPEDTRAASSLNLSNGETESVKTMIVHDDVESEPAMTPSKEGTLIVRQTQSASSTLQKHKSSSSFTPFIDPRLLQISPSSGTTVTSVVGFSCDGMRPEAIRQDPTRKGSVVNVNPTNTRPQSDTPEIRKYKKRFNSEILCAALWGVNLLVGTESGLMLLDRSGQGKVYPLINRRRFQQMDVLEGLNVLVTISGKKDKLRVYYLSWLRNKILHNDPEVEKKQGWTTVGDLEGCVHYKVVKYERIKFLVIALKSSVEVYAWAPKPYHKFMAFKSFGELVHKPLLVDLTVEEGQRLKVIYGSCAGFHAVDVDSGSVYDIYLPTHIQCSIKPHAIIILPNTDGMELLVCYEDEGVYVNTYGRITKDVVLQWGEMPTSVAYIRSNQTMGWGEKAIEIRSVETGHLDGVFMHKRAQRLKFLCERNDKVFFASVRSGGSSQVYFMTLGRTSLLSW
# Procedure, shortened: as §1
# SIK2 = molecular target: T6, SIK2 (Homo sapiens, UniProt Q9H0K1)
# T6 construct: purchased DiscoveRx KINOMEscan
# Procedure, shortened: as §1
# PRKCQ = molecular target: T7, PRKCQ (Homo sapiens, UniProt Q04759)
# T7 construct: purchased DiscoveRx KINOMEscan
# Procedure, shortened: as §1
# ROCK1 = molecular target: T8, ROCK1 (Homo sapiens, UniProt Q13464)
# T8 construct: purchased DiscoveRx KINOMEscan
# Procedure, shortened: as §1
# ROCK2 = molecular target: T9, ROCK2 (Homo sapiens, UniProt O75116)
# T9 construct: purchased DiscoveRx KINOMEscan
# Procedure, shortened: as §1
# NEK11 = molecular target: T10, NEK11 (Homo sapiens, UniProt Q8NG66)
# T10 construct: purchased DiscoveRx KINOMEscan
# T10 sequence (Q8NG66 whole entry): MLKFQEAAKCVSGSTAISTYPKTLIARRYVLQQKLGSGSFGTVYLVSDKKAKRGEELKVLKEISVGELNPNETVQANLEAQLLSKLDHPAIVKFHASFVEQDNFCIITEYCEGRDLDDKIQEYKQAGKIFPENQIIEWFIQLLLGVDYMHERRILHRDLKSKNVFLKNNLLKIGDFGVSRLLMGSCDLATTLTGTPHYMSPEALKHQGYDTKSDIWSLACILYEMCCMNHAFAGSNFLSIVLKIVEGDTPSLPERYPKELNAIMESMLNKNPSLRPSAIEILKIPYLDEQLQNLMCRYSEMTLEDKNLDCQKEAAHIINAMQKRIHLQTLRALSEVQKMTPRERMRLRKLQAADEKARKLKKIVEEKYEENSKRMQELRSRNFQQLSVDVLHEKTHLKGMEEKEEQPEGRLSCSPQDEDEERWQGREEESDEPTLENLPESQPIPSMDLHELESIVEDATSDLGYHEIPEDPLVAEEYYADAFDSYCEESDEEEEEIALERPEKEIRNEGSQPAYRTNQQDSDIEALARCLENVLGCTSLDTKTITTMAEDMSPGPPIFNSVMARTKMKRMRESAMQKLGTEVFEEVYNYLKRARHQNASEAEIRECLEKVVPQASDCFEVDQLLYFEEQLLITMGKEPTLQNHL
# Procedure, shortened: as §1
# p38-alpha = molecular target: T11, p38-alpha (Homo sapiens, UniProt Q16539)
# T11 construct: purchased DiscoveRx KINOMEscan
# Procedure, shortened: as §1
# JNK1 = molecular target: T12, JNK1 (Homo sapiens, UniProt P45983)
# T12 construct: purchased DiscoveRx KINOMEscan
# Procedure, shortened: as §1
# GCN2(Kin.Dom.2,S808G) = molecular target: T13, GCN2(Kin.Dom.2,S808G) (Homo sapiens, UniProt Q9P2K8, S808G)
# T13 construct: GCN2(Kin.Dom.2,S808G); purchased DiscoveRx KINOMEscan
# TNIK = molecular target: T14, TNIK (Homo sapiens, UniProt Q9UKE5)
# T14 construct: purchased DiscoveRx KINOMEscan
# Procedure, shortened: as §1
# CAMK2G = molecular target: T15, CAMK2G (Homo sapiens, UniProt Q13555)
# T15 construct: purchased DiscoveRx KINOMEscan
# T15 sequence (Q13555 whole entry): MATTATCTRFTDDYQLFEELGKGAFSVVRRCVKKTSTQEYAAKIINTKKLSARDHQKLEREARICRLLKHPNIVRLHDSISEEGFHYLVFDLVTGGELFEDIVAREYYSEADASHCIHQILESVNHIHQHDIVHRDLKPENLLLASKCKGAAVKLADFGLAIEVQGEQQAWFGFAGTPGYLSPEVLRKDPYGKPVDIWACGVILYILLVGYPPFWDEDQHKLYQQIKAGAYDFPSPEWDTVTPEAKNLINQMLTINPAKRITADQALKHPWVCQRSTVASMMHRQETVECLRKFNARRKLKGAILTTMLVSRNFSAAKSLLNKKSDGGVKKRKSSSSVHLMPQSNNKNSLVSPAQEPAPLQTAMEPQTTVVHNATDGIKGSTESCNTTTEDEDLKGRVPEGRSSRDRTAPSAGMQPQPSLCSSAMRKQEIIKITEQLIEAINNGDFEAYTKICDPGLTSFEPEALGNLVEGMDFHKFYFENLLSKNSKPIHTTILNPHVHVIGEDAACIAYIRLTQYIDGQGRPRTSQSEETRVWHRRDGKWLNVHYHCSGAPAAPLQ
# Procedure, shortened: as §1
# PLK4 = molecular target: T16, PLK4 (Homo sapiens, UniProt O00444)
# T16 construct: purchased DiscoveRx KINOMEscan
# Procedure, shortened: as §1
# ABL2 = molecular target: T17, ABL2 (Homo sapiens, UniProt P42684)
# T17 construct: purchased DiscoveRx KINOMEscan
# Procedure, shortened: as §1
# CSNK1G2 = molecular target: T18, CSNK1G2 (Homo sapiens, UniProt P78368)
# T18 construct: purchased DiscoveRx KINOMEscan
# Procedure, shortened: as §1
# CAMK2A = molecular target: T19, CAMK2A (Homo sapiens, UniProt Q9UQM7)
# T19 construct: purchased DiscoveRx KINOMEscan
# Procedure, shortened: as §1
# SIK = molecular target: T20, SIK (Homo sapiens, UniProt P57059)
# T20 construct: purchased DiscoveRx KINOMEscan
# Procedure, shortened: as §1
# ULK1 = molecular target: T21, ULK1 (Homo sapiens, UniProt O75385)
# T21 construct: purchased DiscoveRx KINOMEscan
# Procedure, shortened: as §1
# ERN1 = molecular target: T22, ERN1 (Homo sapiens, UniProt O75460)
# T22 construct: purchased DiscoveRx KINOMEscan
# Procedure, shortened: as §1
# MAP4K2 = molecular target: T23, MAP4K2 (Homo sapiens, UniProt Q12851)
# T23 construct: purchased DiscoveRx KINOMEscan
# T23 sequence (Q12851 whole entry): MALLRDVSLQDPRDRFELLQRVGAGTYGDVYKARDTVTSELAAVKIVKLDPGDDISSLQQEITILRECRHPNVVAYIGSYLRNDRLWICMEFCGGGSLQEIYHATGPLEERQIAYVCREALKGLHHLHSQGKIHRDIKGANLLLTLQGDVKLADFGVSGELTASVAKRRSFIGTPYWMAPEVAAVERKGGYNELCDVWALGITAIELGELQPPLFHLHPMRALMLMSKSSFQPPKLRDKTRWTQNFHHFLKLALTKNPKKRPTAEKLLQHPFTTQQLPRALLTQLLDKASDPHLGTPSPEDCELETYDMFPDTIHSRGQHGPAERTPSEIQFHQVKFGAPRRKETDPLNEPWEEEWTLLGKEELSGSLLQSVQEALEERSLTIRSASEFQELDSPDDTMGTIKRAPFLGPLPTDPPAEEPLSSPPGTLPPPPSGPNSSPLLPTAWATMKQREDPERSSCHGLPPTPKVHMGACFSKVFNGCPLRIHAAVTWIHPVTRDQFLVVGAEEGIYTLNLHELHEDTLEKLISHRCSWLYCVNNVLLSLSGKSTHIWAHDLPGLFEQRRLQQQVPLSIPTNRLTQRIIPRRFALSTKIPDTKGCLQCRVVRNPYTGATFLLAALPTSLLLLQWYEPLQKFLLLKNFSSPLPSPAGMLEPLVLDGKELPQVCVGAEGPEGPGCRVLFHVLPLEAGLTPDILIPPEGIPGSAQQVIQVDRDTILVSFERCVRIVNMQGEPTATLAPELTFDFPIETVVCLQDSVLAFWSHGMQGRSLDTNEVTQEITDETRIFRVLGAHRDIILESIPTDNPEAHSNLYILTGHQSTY
# Procedure, shortened: as §1
# FAK = molecular target: T24, FAK (Homo sapiens, UniProt Q05397)
# T24 construct: purchased DiscoveRx KINOMEscan
# Procedure, shortened: as §1
# [1] = molecular target: T25, JAK1(JH2domain-pseudokinase) (Homo sapiens, UniProt P23458)
# T25 construct: JAK1(JH2domain-pseudokinase); purchased DiscoveRx KINOMEscan
# T25 sequence (P23458 561-860 limits assumed): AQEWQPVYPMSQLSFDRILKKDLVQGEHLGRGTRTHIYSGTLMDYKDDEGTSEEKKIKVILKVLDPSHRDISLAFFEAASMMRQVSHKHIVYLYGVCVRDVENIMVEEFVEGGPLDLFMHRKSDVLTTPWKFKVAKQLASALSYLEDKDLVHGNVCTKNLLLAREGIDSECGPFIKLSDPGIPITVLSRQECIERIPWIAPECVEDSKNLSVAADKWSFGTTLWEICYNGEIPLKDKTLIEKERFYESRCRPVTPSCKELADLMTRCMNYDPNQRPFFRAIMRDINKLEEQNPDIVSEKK
# Procedure, shortened: as §1
# PIP5K1C = molecular target: T26, PIP5K1C (Homo sapiens, UniProt O60331)
# T26 construct: purchased DiscoveRx KINOMEscan
# Procedure, shortened: as §1
# [2] = molecular target: T27, JAK3(JH1domain-catalytic) (Homo sapiens, UniProt P52333)
# T27 construct: JAK3(JH1domain-catalytic); purchased DiscoveRx KINOMEscan
# T27 sequence (P52333 813-1124 limits assumed): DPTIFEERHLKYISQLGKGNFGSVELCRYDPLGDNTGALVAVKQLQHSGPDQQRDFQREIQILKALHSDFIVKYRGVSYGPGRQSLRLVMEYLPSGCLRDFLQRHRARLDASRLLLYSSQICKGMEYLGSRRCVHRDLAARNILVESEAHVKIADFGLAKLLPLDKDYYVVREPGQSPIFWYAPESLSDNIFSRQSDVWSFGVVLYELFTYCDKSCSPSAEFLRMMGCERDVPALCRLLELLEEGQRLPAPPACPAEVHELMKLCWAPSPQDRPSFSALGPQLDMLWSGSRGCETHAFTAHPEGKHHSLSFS
# Procedure, shortened: as §1
# DCAMKL2 = molecular target: T28, DCAMKL2 (Homo sapiens, UniProt Q8N568)
# T28 construct: purchased DiscoveRx KINOMEscan
# Procedure, shortened: as §1
# MST4 = molecular target: T29, MST4 (Homo sapiens, UniProt Q9P289)
# T29 construct: purchased DiscoveRx KINOMEscan
# T29 sequence (Q9P289 whole entry): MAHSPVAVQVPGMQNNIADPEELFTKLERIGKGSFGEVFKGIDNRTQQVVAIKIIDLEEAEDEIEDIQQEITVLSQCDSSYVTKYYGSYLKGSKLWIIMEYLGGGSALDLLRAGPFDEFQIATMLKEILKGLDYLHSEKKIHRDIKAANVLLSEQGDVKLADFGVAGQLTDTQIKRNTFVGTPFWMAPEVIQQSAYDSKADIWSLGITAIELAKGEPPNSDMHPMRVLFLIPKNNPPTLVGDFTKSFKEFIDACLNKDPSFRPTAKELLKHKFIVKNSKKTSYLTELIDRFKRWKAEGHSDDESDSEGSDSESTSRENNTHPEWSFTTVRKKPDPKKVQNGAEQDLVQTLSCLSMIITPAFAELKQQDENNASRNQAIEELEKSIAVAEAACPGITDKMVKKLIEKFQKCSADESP
# Procedure, shortened: as §1
# T1 sequence (P43403 whole entry): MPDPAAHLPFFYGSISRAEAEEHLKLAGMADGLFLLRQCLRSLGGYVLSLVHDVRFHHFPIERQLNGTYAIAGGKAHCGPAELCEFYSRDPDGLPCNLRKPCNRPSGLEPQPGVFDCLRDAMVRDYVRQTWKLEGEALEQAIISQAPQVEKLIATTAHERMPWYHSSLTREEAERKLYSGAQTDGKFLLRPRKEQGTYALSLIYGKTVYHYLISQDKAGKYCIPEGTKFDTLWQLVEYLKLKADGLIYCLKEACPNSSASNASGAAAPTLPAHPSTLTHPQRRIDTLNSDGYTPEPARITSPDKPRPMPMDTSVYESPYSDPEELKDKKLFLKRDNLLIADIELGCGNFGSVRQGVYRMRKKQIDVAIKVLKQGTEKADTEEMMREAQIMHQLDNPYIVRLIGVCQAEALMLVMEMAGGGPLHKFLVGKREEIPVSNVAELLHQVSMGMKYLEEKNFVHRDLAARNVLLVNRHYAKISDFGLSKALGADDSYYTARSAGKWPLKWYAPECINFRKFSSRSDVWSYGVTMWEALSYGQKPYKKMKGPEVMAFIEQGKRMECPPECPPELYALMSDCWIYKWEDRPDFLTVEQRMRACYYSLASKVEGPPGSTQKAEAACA
structure (smiles),measurement,setting,value
"Cc1ccc(C2=Nc3cccnc3S(=O)(=O)c3ccccc32)cc1 [TBPT, 6-(p-tolyl)benzo[f] pyrido[2,3-b][1,4] thiazepine 11,11-dioxide]",remaining binding at 5 µM,ZAP70; 5 μM,100%
same,remaining binding at 10 µM,ZAP70; 10 μM,99%
same,remaining binding at 5 µM,DAPK2; 5 μM,100%
same,remaining binding at 10 µM,DAPK2; 10 μM,99%
same,remaining binding at 5 µM,PCTK1; 5 μM,90%
same,remaining binding at 10 µM,PCTK1; 10 μM,100%
same,remaining binding at 5 µM,AKT1; 5 μM,84%
same,remaining binding at 10 µM,AKT1; 10 μM,100%
same,remaining binding at 5 µM,MAP4K4; 5 μM,94%
same,remaining binding at 10 µM,MAP4K4; 10 μM,63%
same,remaining binding at 5 µM,SIK2; 5 μM,84%
same,remaining binding at 10 µM,SIK2; 10 μM,90%
same,remaining binding at 5 µM,PRKCQ; 5 μM,100%
same,remaining binding at 10 µM,PRKCQ; 10 μM,100%
same,remaining binding at 5 µM,ROCK1; 5 μM,84%
same,remaining binding at 10 µM,ROCK1; 10 μM,100%
same,remaining binding at 5 µM,ROCK2; 5 μM,100%
same,remaining binding at 10 µM,ROCK2; 10 μM,92%
same,remaining binding at 5 µM,NEK11; 5 μM,43%
same,remaining binding at 10 µM,NEK11; 10 μM,100%
same,remaining binding at 5 µM,p38-alpha; 5 μM,63%
same,remaining binding at 10 µM,p38-alpha; 10 μM,100%
same,remaining binding at 5 µM,JNK1; 5 μM,100%
same,remaining binding at 10 µM,JNK1; 10 μM,85%
same,remaining binding at 5 µM,"GCN2(Kin.Dom.2,S808G); 5 μM",100%
same,remaining binding at 10 µM,"GCN2(Kin.Dom.2,S808G); 10 μM",100%
same,remaining binding at 5 µM,TNIK; 5 μM,84%
same,remaining binding at 10 µM,TNIK; 10 μM,97%
same,remaining binding at 5 µM,CAMK2G; 5 μM,100%
same,remaining binding at 10 µM,CAMK2G; 10 μM,96%
same,remaining binding at 5 µM,PLK4; 5 μM,100%
same,remaining binding at 10 µM,PLK4; 10 μM,92%
same,remaining binding at 5 µM,ABL2; 5 μM,80%
same,remaining binding at 10 µM,ABL2; 10 μM,97%
same,remaining binding at 5 µM,CSNK1G2; 5 μM,100%
same,remaining binding at 10 µM,CSNK1G2; 10 μM,100%
same,remaining binding at 5 µM,CAMK2A; 5 μM,100%
same,remaining binding at 10 µM,CAMK2A; 10 μM,87%
same,remaining binding at 5 µM,SIK; 5 μM,92%
same,remaining binding at 10 µM,SIK; 10 μM,92%
same,remaining binding at 5 µM,ULK1; 5 μM,100%
same,remaining binding at 10 µM,ULK1; 10 μM,83%
same,remaining binding at 5 µM,ERN1; 5 μM,92%
same,remaining binding at 10 µM,ERN1; 10 μM,100%
same,remaining binding at 5 µM,MAP4K2; 5 μM,92%
same,remaining binding at 10 µM,MAP4K2; 10 μM,100%
same,remaining binding at 5 µM,FAK; 5 μM,92%
same,remaining binding at 10 µM,FAK; 10 μM,92%
same,remaining binding at 5 µM,[1]; 5 μM,100%
same,remaining binding at 10 µM,[1]; 10 μM,100%
same,remaining binding at 5 µM,PIP5K1C; 5 μM,100%
same,remaining binding at 10 µM,PIP5K1C; 10 μM,94%
same,remaining binding at 5 µM,[2]; 5 μM,100%
same,remaining binding at 10 µM,[2]; 10 μM,100%
same,remaining binding at 5 µM,DCAMKL2; 5 μM,100%
same,remaining binding at 10 µM,DCAMKL2; 10 μM,100%
same,remaining binding at 5 µM,MST4; 5 μM,63%
same,remaining binding at 10 µM,MST4; 10 μM,99%
